Bridge positions count the residues as written; N and C are the ends. Square brackets hold non-standard residues; d marks the D form. Peptide text beside a SMILES is read from it. * marks the point of attachment. DO3A(CH2CH2SO2CH2CH2) = O=C(O)CN1CCN(CCS(=O)(=O)CC*)CCN(CC(=O)O)CCN(CC(=O)O)CC1; Ala(4-thiazolyl) = N[C@@H](Cc1cscn1)C(=O)O
Legend:
[1] = tested on: GCGR in NHP liver sections; assay: in vitro autoradiography, liver sections; type: binding, cynomolgus monkey (NHP)
Description: Liver and pancreas tissues were collected post-mortem from cynomolgus monkeys (NHP) and Sprague Dawley rats. The use of animal tissues collected post-mortem was approved by the Animal Research Ethical Committee of the Uppsala Region and was performed according to the Uppsala university guidelines on animal experimentation (UFV 2007/724).
Sections were added in duplicates in each individual assay, and each experiment was repeated at least three times with different batches of radioligand, except for rat sections that were only performed in one assay.
After incubation, the sections were washed three times in 150 mL PBS. Sections were carefully dried at 37 °C and then exposed against a digital phosphorimager plate overnight together with a 10-μl droplet of radioactive reference (cross-calibrated against a gamma counter) on an absorbent paper attached to an object glass. The phosphor imager plates were scanned using a Cyclone Plus Phosphor imager (Perkin Elmer) at 600 dpi, and the resulting autoradiograms analyzed by ImageJ software (NIH, Bethesda). Pixel values in counts/mm^2 were converted to Bq/mm^2 by the included reference. Bq/mm^2 was further converted to fmol/mm^2 by the known specific radioactivity (fmol/Bq) of each batch of radiopharmaceutical.

[2] = rat in vivo distribution (ex vivo organ counting); set-up: species or system Sprague Dawley rats; conditions: male, Sprague Dawley, iv, total radioactivity, i.v.
Description: The in vivo distribution over time was performed to identify the optimal time point for an in vivo blocking study and to calculate the residence time for dosimetry (see detail below). Thus, measurement at more time points was prioritized over repetitions at individual time points.
The animals were kept at a constant temperature (25 °C) and humidity (50%) in a 12-h light-dark cycle. Food and water were provided ad libitum.
Each radiotracer was administered into the tail vein of conscious animals as a bolus in 0.5–0.6 mL of PBS (pH 7.4) as vehicle. […] Given the constraints of the specific radioactivity for each radioligand, the dosing was designed to minimize the given peptide mass (in order to stay below mass effect levels) while still yielding enough radioactive signal for well counter measurements.
At pre-determined post injection time points (5, 10, 20, 40, 60, 90, 120, and 180 min), two animals per each point were euthanized by CO2. Tissues were immediately extracted and weighed, and the radioactive content was measured in the well counter. […] The well counter readings were decay corrected to the time of injection and the mass of the extracted tissues and expressed as Bq/cc. […]

## CC[C@H](C)[C@H](NC(=O)[C@H](Cc1ccccc1)NC(=O)[C@H](CCC(=O)O)NC(=O)[C@@H]1CCCCNC(=O)CC[C@H](NC(=O)[C@H](CC(=O)O)NC(=O)[C@H](CC(C)C)NC(=O)[C@H](CCC(N)=O)NC(=O)[C@H](CCCCN)NC(=O)[C@H](CO)NC(=O)[C@H](Cc2ccc(O)cc2)NC(=O)[C@H](CC(=O)O)NC(=O)[C@H](CO)NC(=O)[C@@H](NC(=O)[C@H](Cc2ccccc2)NC(=O)[C@@H](NC(=O)CNC(=O)[C@H](CCC(N)=O)NC(=O)[C@@H](CO)NC(=O)[C@@H](N)Cc2cscn2)[C@@H](C)O)[C@@H](C)O)C(=O)N[C@@H](CCC(N)=O)C(=O)N[C@@H](CCCNC(=N)N)C(=O)N[C@@H](C)C(=O)N1)C(=O)N[C@@H](CCC(=O)O)C(=O)N[C@@H](Cc1c[nH]c2ccccc12)C(=O)N[C@@H](CC(C)C)C(=O)N[C@@H](CC(C)C)C(=O)N[C@@H](C)C(=O)N[C@H](C(=O)NCC(=O)N1CCC[C@H]1C(=O)N[C@@H](CCC(=O)O)C(=O)N[C@@H](CO)C(=O)NCC(=O)N[C@@H](C)C(=O)N1CCC[C@H]1C(=O)N1CCC[C@H]1C(=O)N1CCC[C@H]1C(=O)N[C@@H](CO)C(=O)N[C@@H](CSCCS(=O)(=O)CCN1CCN(CC(=O)O)CCN(CC(=O)O)CCN(CC(=O)O)CC1)C(N)=O)[C@@H](C)O [[^68Ga]Ga-DO3A-S01-GCG, metal not drawn] (H-[Ala(4-thiazolyl)][dS]QGTFTSDYSKQLDEQRAKEFIEWLLATGPESGAPPPSC(DO3A(CH2CH2SO2CH2CH2))-NH2; lactam 16-20)
[1]; 1 μM GLP-1
  effect of GLP-1 in excess on tracer binding to liver sections: did not induce inhibition
[1]; 10 μM precursor
  inhibition of tracer binding to liver sections by co-incubation with own precursor peptide: did not increase the degree of inhibition
[1]; 5–10 nM tracer, 10 μM GCG, 60 min RT, n = 3 (S01), n = 4 (S02)
  inhibition of tracer binding to liver sections by co-incubation with GCG: > 60%
[2]; liver, 3.6 ug/kg, after 20 min, read-out: uptake in the liver, plateau
  SUV: 3 SUV
[2]; liver/blood, after 90 min
  tissue to tissue ratio: > 30

— publication PMC6377692 (EJNMMI Research, 2019)
